In PubChem BioAssay (NCI):
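Cultured in 96-well plates, cells were exposed to test compound for 48 hours across five concentrations. TGI denotes the concentration required for complete inhibition of growth.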

Key:
Assay in all cases: NCI-60 cell line screen, 48 h
[1] = test system: A498 renal
[2] = test system: DU-145 prostate
[3] = test system: HCC-2998 colon
[4] = test system: HOP-62 NSCLC
[5] = test system: IGROV1 ovarian
[6] = test system: KM12 colon
[7] = test system: MDA-MB-231 breast
[8] = test system: NCI-H23 lung
[9] = test system: OVCAR-3 ovarian
[10] = test system: PC-3 prostate
[11] = test system: RPMI-8226 leukemia
[12] = test system: SK-MEL-28 melanoma
[13] = test system: SK-OV-3 ovarian
[14] = test system: SNB-19 CNS
[15] = test system: SNB-75 CNS
[16] = test system: T-47D breast
[17] = test system: TK-10 renal
[18] = test system: CCRF-CEM leukemia

SMILES	TGI [1] [µM]	TGI [2] [µM]	TGI [3] [µM]	TGI [4] [µM]	TGI [5] [µM]	TGI [6] [µM]	TGI [7] [µM]	TGI [8] [µM]	TGI [9] [µM]	TGI [10] [µM]	TGI [11] [µM]	TGI [12] [µM]	TGI [13] [µM]	TGI [14] [µM]	TGI [15] [µM]	TGI [16] [µM]	TGI [17] [µM]	TGI [18] [µM]
N#C/C(=C\N1CCNC1=S)C(=O)c1ccc2ccccc2c1	> 100	> 100	> 100	> 100	> 100	> 100	> 100	> 100	> 100	> 100	> 100	> 100	> 100	> 100	> 100	> 100	> 100	
COc1cc(C(CN)N(C)C)cc(OC)c1OC (stereo not drawn)	> 100	> 100	> 100	> 100	> 100	> 100	> 100	> 100	> 100	> 100		> 100	> 100	> 100		> 100	> 100	> 100
Cn1c2nc(=Nc3ccc(Cl)cc3)n3ccc4ccccc4c3c2c(=O)n1-c1ccccc1	> 100	> 100	> 100	> 100	> 100	> 100	> 100	> 100	> 100	> 100	> 100	> 100		> 100	> 100	> 100	> 100	
COC(=O)[C@@H]1C[C@H]2[C@H](c3ccccc3Br)[C@@H](OC(C)=O)[C@@H](OCc3ccccc3)ON2O1		> 100	> 100	> 100	> 100	> 100	> 100	> 100	> 100	> 100		> 100	> 100	> 100	> 100	> 100	> 100	> 100
O=[N+]([O-])/C(Cl)=C(\Sc1ccccc1)C(Cl)=C(Cl)Cl	3.1	3.08	3.84	3.68	2.62	3.21	0.628	1.87	2.85	4.12		2.76	13.3	4.26		4.88	3.21	0.667
Cn1cc(C=C(C#N)C#N)c(=O)n(C)c1=O	> 100	> 100		> 100	> 100	> 100	> 100	> 100	> 100	> 100	> 100	> 100	> 100	> 100	> 100	> 100	> 100	
O=C(c1cccs1)N(C(=S)OCc1ccccn1)c1ccccc1	> 100	> 100			> 100	> 100	> 100	> 100	> 100	> 100	> 100	> 100	> 100	> 100		> 100	> 100	> 100
CCOC(=O)C1C(=O)CC(C)(O)C(C(=O)OCC)C1c1ccc(O)c(OC)c1 (stereo not drawn)	> 100	> 100	> 100	> 100	> 100	> 100	> 100	> 100	> 100	> 100		> 100		> 100	> 100	> 100	> 100	> 100
CCCCNC(=O)C1=C(C)NC(C)=C(C(=O)NCCCC)C1	> 100	> 100	> 100	> 100	> 100	> 100	> 100	> 100	> 100			> 100	> 100	> 100	> 100	> 100	> 100	
COC(=O)c1ccc(/C=N/c2cc(C)nn2-c2ccccc2)cc1		> 100	8.05	> 100	> 100	> 100	> 100	> 100	38.7	> 100	> 100	> 100	> 100	> 100	96.8	58	6.18	> 100
c1ccc(SCCP(CCP(c2ccccc2)c2ccccc2)c2ccccc2)cc1 (stereo not drawn)		> 100	> 100	> 100	> 100	> 51	> 100	> 54.1	39.9		> 66.3	> 100	> 100	> 100	> 19.6	79.1	> 100	> 100
O=C(C1=CCC2(CC1)OCCO2)N(Cc1ccccc1)c1ccccc1I	51.9	63.6	32.8	43.3		29.5	68.1	44.1	38.6	59.9	97.6	46.2	88.2	37.3	37	59.7	44.5	
CC(C)Nc1n[nH]c(=O)n1C(C)C	> 100	> 100		> 100	> 100	> 100	> 100	> 100	> 100	> 100	> 100	> 100	> 100	> 100	> 100	> 100	> 100	> 100
COc1ccc(-n2c(C)nc3ccc(N=Cc4ccccc4)cc3c2=O)cc1	> 100	> 100	> 100	> 100	> 100	> 100	> 100	> 100	> 100	> 100	> 100	> 100		> 100	> 100	> 100	> 100	
S=c1scc(-c2ccc(Cl)cc2)n1OC1CCCC1	79.8	> 100	71.2	> 100	> 100	> 100	> 100	> 100	74.9	> 100		> 100	> 100	> 100	> 100	> 100	> 100	
C1CSCCSS[C@@H]2CCCCC2SC1 (stereo partly drawn)		> 100	> 100	> 100	> 100	> 100	> 100	> 100	> 100	> 100		> 100	> 100	> 100	> 100	> 100	> 100	> 100
c1csc(-c2cc(-c3ccsc3)c(-c3cccs3)s2)c1	> 100	> 100	> 100	> 100		> 100	> 100	> 100	> 100	> 100		> 100		> 100	> 100	> 100	> 100	> 100
COC(=O)C1=C(C(=O)OC)C2(/N=C(\Nc3ccccc3)c3ccccc3)N(c3ccc(OC)cc3)CC(c3ccccc3)N2O1 (stereo not drawn)	> 100	> 100		> 100	> 100	> 100	> 100	> 100	> 100	> 100		> 100	> 100	> 100	96.7	> 100	> 100	> 100
CNC(=O)OC(C)CN1c2ccccc2Sc2ccccc21 (stereo not drawn)	> 100	> 100	> 100	> 100	> 100	> 100	> 100	> 100	> 100	> 100		> 100	> 100	> 100		> 100	> 100	> 100
O=C1CC(CC(O)C(O)CO)CC(=O)N1 (stereo not drawn)	> 100	> 100	> 100	> 100	> 100	> 100	> 100	> 100	> 100	> 100	> 100	> 100		> 100		> 100	> 100	> 100
COC(=O)c1ccccc1C1CN=NC12Cc1c(C)c3c(c(C)c1C2=O)CCC3 (stereo not drawn)	> 100	> 100	> 100	> 100	> 100	> 100	> 100	> 100	> 100	> 100		> 100	> 100	> 100	> 100	> 100	90.8	> 100
O=C(CN1CCOCC1)NC1=Nc2ncccc2C(=O)NN1	> 10	> 10		> 10	> 10	> 10	> 10	> 10	> 10	> 10	> 10	> 10	> 10	> 10	> 10	> 10	> 10	> 10
O=C(CCNC(=O)OCc1ccccc1)OCCCNC(=O)OCc1ccccc1		> 100	> 100	> 100	> 100	> 100	> 100	> 100	> 100	> 100	> 100	> 100	> 100	> 100	> 100	> 100	> 100	> 100
CC(=O)NC1C(OCc2ccccc2)OC(CO)C(O)C1OCC(=O)NC(C)C(=O)NC(CCC(=O)OCCNC(=O)c1cccc2cc3ccccc3nc12)C(N)=O (stereo not drawn)		26.6	40.4	68.9	48.9	56.3		48.6	43.3	> 100	19.3	43.3	58.2	78.8	51.1	54.6	41.6	
CN(C)CCCNC(=O)c1cc(NC(=O)CCCn2c3ccccc3c3ccccc32)cn1C	71.3	> 100		> 100	33.9	> 100	> 100	> 100	> 100	> 100	> 100	> 100	> 100	> 100	> 100	75.2	82	> 100
O=c1oc2ccccc2c(O)c1C(c1ccc([N+](=O)[O-])cc1)c1c(O)c2ccccc2oc1=O	> 100	> 100		> 100	> 100	> 100	> 100	> 100	> 100	> 100		> 100		> 100	> 100	> 100	> 100	> 100
Cc1nnc2nc(-c3ccc(Cl)cc3Cl)cc(-c3ccc(Cl)cc3)n12		> 100		> 100		> 100	> 100	> 100	> 100	> 100	> 100	40.8	> 100	> 100		> 100	> 100	> 100
COC(=O)C1=C(O)C(C(=O)OC)[C@@]2(O)[C@@H](C(=O)OC)C(c3ccc(OC(=O)/C(=C/c4ccccc4)c4ccccc4)cc3)C[C@@H]1[C@@H]2C(=O)OC (stereo partly drawn)	96.4	> 100		> 100	> 100	> 100	> 100	> 100	> 100	> 100		> 100	> 100	> 100	35.6	> 100	51.4	> 100
